Assay [1] deals with human melanoma cell lines RPMI-7951, SK MEL 28, SK MEL 31, SK MEL 24, A375. Description: Melanoma cell growth inhibition (Cell Titer-Glo 2.0 Luminescent Cell Viability Assay). The class given is cell-based. As to conditions: 72 hours incubation with compounds. From the text:
The Cell Titer-Glo® 2.0 Luminescent Cell Viability Assay is a sensitive homogeneous method to determine the number of viable cells in culture. Detection is based on using the luciferase reaction to measure the amount of ATP from viable cells. The amount of ATP in cells correlates with cell viability. Within minutes after a loss of membrane integrity, cells lose the ability to synthesize ATP, and endogenous ATPases destroy any remaining ATP; thus the levels of ATP fall precipitously. The Cell Titer-Glo® 2.0 Reagent does three things upon addition to cells. It lyses cell membranes to release ATP; it inhibits endogenous ATPases, and it provides luciferin, luciferase and other reagents necessary to measure ATP using a bioluminescent reaction. The unique properties of a proprietary stable luciferase. There is a linear relationship (r2=0.99) between the luminescent signal and the number of cells from 0 to 50.000 cells per well. […]
Conditions: 37° C., air 95%; HEPA-filtered carbon dioxide (CO2) 5%, humidified atmosphere. • Cells are grown in 175 cm^2 flasks to 80-90% of confluency. • Culture media are aspirated and cell layer is briefly rinsed with Versen solution to remove all traces of serum. • 2 mL of Accutase is added to cells. • Flasks are returned to incubator for 5 min to allow cell detachment. • Add 6.0 mL of complete growth medium. • Single cell suspension is created by gently pipetting. • Cells are counted using a Hematocytometer and a suspension with the desired cell concentration is prepared. […]
Stock solutions (70 μL) are diluted with cell culture media to produce 500× serial dilutions and 10 of final compound dilutions are added to cells in assay plates to screen a series of 10 doses starting at […]. […] Luminescence intensity is measured for each well using the Tecan M 1000 microplate reader after 5 min of incubation with the Cell Titer-Glo® 2.0. The number of viable cells in culture is determined based on quantitation of the ATP present in each culture well. […] P values are calculated by using the Student's t test for absolute values. […]
Background: ATP-based viability assays read luminescence as a measure of living cells.

Assay [2] addresses endothelin A receptor (ETAR) (Homo sapiens, UniProt P25101). Briefly: ETAR IC50 (nM). From the text: Table printed on a drawing sheet, FIG. 3
Head of the field: ETAR IC50 (nM)

For assay [3], the target named is T1, endothelin B receptor (ETBR) (Homo sapiens, UniProt P24530).
T1 sequence (P24530 27-442): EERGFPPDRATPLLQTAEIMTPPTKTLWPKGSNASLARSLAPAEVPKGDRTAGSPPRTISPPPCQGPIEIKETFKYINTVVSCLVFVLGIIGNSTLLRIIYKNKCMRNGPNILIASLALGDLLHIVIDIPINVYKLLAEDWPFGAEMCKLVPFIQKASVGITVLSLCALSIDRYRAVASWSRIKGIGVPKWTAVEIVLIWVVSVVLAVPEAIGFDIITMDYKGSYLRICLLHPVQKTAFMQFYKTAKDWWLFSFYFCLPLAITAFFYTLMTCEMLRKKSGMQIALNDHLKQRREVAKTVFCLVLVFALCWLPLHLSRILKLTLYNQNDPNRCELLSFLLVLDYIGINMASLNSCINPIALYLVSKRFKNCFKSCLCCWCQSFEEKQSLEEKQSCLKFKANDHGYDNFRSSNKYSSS
Description: IC50 of BQ-788 against ETAR and ETBR (FIG. 3B). The class given is binding. The settings on record: from IC50 against ETAR and ETBR.

The target of assay [4] is human recombinant endothelin B receptor (ETBR) (human) (UniProt P24530). Description: not stated on the sheet or in the legend; the receptor source, species and competing ligand are not given, and the value may come from the literature.
Assay [5] addresses T2, ETBR receptors (Homo sapiens, UniProt P24530).
T2 sequence (P24530 27-442): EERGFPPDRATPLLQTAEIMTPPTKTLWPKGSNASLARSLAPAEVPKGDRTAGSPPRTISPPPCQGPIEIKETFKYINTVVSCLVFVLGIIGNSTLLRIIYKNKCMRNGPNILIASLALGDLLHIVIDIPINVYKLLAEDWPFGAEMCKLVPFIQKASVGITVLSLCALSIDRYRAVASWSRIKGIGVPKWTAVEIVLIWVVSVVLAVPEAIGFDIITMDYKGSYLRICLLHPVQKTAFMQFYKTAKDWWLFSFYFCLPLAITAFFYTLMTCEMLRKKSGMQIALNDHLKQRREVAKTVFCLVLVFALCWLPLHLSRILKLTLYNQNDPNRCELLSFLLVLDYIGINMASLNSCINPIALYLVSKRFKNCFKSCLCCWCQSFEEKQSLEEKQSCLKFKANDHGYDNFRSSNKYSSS
The settings on record: physiological concentrations; cited from earlier work.

For assay [6], the target named is T3, human recombinant ETB receptor (ETBR) (Homo sapiens, UniProt P24530).
T3 construct: expressed in transfected cells; host or cells: CHO cells, stably transfected (vector pME18S-FL3); membranes prepared from them
T3 sequence (P24530 27-442): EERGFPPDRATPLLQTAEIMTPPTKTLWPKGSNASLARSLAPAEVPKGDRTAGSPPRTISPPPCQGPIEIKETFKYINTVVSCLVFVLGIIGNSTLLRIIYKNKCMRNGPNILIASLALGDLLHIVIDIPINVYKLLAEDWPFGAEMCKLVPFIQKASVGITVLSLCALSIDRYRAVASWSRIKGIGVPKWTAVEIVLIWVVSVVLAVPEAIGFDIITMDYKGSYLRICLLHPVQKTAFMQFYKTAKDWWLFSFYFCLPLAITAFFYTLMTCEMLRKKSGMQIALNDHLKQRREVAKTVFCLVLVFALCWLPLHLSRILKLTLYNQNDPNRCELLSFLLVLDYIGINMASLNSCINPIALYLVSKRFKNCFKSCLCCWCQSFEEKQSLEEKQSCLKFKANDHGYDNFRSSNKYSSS
Briefly: ET-1 Receptor Binding Assay ([125I]ET-1, CHO cell membranes expressing ETBR). The protocol:
Preparation of Membranes. CHO cell membranes are prepared by washing ETAR- or ETBR-transfected cells with phosphate buffered saline and centrifugation. […] The homogenates are centrifuged at 8,000×g for 10 minutes and supernatants are then centrifuged at 40,000×g for 1 hour at 4° C. The pellets are homogenized in buffer A and recentrifuged at 40,000×g for 1 hour.
(§1) The glass filters are washed three times with cold 50 mM Tris-HCl buffer containing 1 mM EDTA. The radioactivity on the washed filter is measured by using a Packard γ counter.

For assay [7], the target named is T4, human recombinant endothelin B receptor (ETBR) (human, UniProt P24530 27-442).
T4 construct: whole, on cells; The assay used membranes prepared from CHO-ETBR cells; also called ETB receptor; endothelin receptor type B
T4 sequence (looked up): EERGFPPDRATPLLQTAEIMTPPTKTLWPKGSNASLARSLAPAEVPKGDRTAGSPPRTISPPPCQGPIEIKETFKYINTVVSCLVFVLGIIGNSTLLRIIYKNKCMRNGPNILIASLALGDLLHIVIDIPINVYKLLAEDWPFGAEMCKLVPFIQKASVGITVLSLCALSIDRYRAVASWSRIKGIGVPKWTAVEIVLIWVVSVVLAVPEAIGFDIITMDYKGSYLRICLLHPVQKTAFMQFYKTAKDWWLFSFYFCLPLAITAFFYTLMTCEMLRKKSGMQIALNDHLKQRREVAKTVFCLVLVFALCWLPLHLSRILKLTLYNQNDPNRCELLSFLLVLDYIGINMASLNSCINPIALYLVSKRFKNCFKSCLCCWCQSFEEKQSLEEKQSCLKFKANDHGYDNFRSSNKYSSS
Briefly: displacement of [125I]ET-1 from CHO-ETBR membranes, filtration. As for the experimental part: Preparation of Membranes. CHO cell membranes are prepared by washing ETAR- or ETBR-transfected cells with phosphate buffered saline and centrifugation. The resulting cell pellets are homogenized with a polytron (settings 8 for 30 seconds×2) in 5 volumes of buffer A containing 1 mM NaHCO₃, 5 mM EDTA (pH 8.3), 5 μg/ml Leupeptin, 5 μg/ml Pepstatin A, and 40 μM phenylmethylsulfonyl fluoride. The homogenates are centrifuged at 8,000×g for 10 minutes and supernatants are then centrifuged at 40,000×g for 1 hour at 4° C. The pellets are homogenized in buffer A and recentrifuged at 40,000×g for 1 hour. The resulting pellets are homogenized in buffer A supplemented with 130 mM NaCl, 5 mM Na₂HPO₄, and 1.5 mM KH₂PO₄ and stored at −70° C.
as §1
Background: Loss of bound radioactivity is the signal in a displacement assay; it reports binding, not function.

This is an account of results in patent US20230076411A1, “LASSO PEPTIDES FOR TREATMENT OF CANCER” (Lassogen, Inc., priority 2020, published 2023).

Positions of bridges follow the written chain, without caps; N, C: chain ends. Non-standard residues stand in square brackets, D forms with d. Residues, ends and D or L forms follow the SMILES beside them. No end group written: not given here. Trp(7-OH) = N[C@@H](Cc1c[nH]c2c(O)cccc12)C(=O)O; 2Nal = N[C@@H](Cc1ccc2ccccc2c1)C(=O)O Bounds are passed on as bounds.

For `CC(C)C[C@@H]1NC(=O)[C@@H](C(C)C)NC(=O)[C@@H]2CCCN2C(=O)[C@@H](CC(=O)O)NC(=O)[C@@H](Cc2c[nH]c3ccccc23)NC1=O` [BQ-123] (cyclo(L[dW][dD]P[dV])), the “growth of all tested human melanoma cell lines” value (shortened to “growth”) in assay [1] is reported as “not”.
Consider `CCCC[C@@H](NC(=O)[C@@H](Cc1cn(C(=O)OC)c2ccccc12)NC(=O)[C@H](CC(C)(C)C)NC(=O)N1[C@H](C)CCC[C@@H]1C)C(=O)O` [BQ-788], for which the “growth” value in assay [1] is recorded as “inhibited”. Further, in assay [2], the IC50 – broadly, the concentration that inhibits the measured activity by half – is 280 nM. Also, in assay [3], the “binding selectivity ETBR over ETAR” value is recorded as “selectively binds to ETBR over ETAR”.
BQ-788 (peptide): the IC50 in assay [4] was found to be 1.2 nM.
Turning to “ET-2: cognate endothelin ligand, 21-amino acid peptide (CSCSSWLDKECVYFCHLDIIW; ends and bridges not checked; cysteine pairing not given here; UniProt P20800 49-69, looked up)”, in assay [5], the Kd (as a rule, the constant that tells how readily two partners part at equilibrium) was 0.015 nM.
With GNWHGTAPDWFFNYYW [Lasso 1], the “growth” value in assay [1] is listed as “inhibited”.
Consider “MTEQSEQTPAEYIPPMLVEVGEFTEDTLGNWHGTAPDWFFNYYW [Lasso 18]”, for which the IC50 in assay [6] was > 5000 nM.
Turning to “MTEQSEQTPAEYIPPMLVEVGEFTEDTLGNWHGTSPDWFFNYYW [Lasso 20]”, the IC50 in assay [6] is > 5000 nM.
Regarding GNWHGTAPDWFFNYY[2Nal] (lactam N-9, also called Lasso 54) [lasso peptide having primary sequence of SEQ ID NO: 54], the IC50 in assay [7] stood at 6.3 nM.
Still for that read-out and setting: next, GNWHGTSPDWFFNYY[Trp(7-OH)] (lactam N-9, also called Lasso 4) [lasso peptide having primary sequence of SEQ ID NO: 4]: 8 nM; GNWHGTAPDWFFNYYNIIW (lactam N-9, also called Lasso 48) [lasso peptide having primary sequence of SEQ ID NO: 48]: > 70 nM.
